What was measured:
Type in all cases: cell-based, rat
[1] = test system: heparan sulfate (HS) of RFPEC glycocalyx; experiment: HS expression (coverage) in RFPEC glycocalyx by immunofluorescence confocal microscopy (Example 1)
Method: (§1) Cell Culture. Rat fat pad ECs (RFPEC) at passages 20 to 39 were offspring of cells isolated from rat epididymal fat pad and provided by Dr. Mia Thi of Albert Einstein College of Medicine (Bronx, N.Y.). […] The RFPECs are immortalized, making it possible to use late passages. RFPEC were seeded on 12-14-mm diameter and 0.13-0.17-mm thick glass coverslips at a seeding density of 15,000-20,000 cells/cm^2. Cells were cultured in Dulbecco's Modified Eagle Medium (DMEM, Invitrogen, USA) with 1% penicillin-streptomycin (PS) and 10% fetal bovine serum (FBS, Gibco Life Technologies). Cells were maintained in humidity at 37° C. and 5% CO2. RFPECs reached full confluence in 3 days.
(§2) Cultured RFPECs produce thick and robust GCX in this time period. At 3 days post-seeding the RFPECs' culture medium was supplemented with 1% BSA in place of FBS to stabilize the GCX during preservation and immunolabeling (described below). For enzyme treatment experiments, 25 micro-international units per milliliter (μIU/ml) of heparinase III (Hep III; IBEX, Canada) were added to BSA-containing culture media for 2 hours to degrade HS from the GCX [46]. HepIII was washed out, and the wash-out was followed by a 16-hour incubation of RFPECs in regular BSA-containing media. In self-recovery experiments, RFPEC GCX was left to recover for 24 hours after enzyme degradation. The time frame was chosen in accordance with the 20-hour time period that is required for HS restoration to occur on the surface of ECs. For HS recovery experiments, exogenous HS and/or S1P were applied for 16 hours to accommodate the communication test as an assessment of functional glycocalyx recovery. […] After HS was degraded with HepIII, it was replaced by a 16-hour feeding of RFPECs with 59 μg/ml exogenous porcine mucosal HS (Celsus, Cincinnati, Ohio), based on published serum concentration of HS [43]. In sphingosine-1-phosphate experiments, culture media containing enzyme was substituted for media containing either 10 μM of S1P (Sigma-Aldrich) or a combination of 59 μg/ml of HS and 10 μM of S1P for 16 hours after enzyme degradation.
Immunostaining. RFPECs have high affinity to most antibodies that are available for performing immunocytochemistry. For heparan sulfate (HS), RFPEC monolayers were treated with 2% paraformaldehyde/1% glutaraldehyde in phosphate buffered saline (PBS) for fixation, treated with 2% goat serum in PBS to block non-specific ligands, and stained for three nights at 4° C. with a 1:100 10E4-epitope HS antibody (Amsbio).
As specified by the manufacturer, the HS antibody reacts with many types of heparan sulfate. The reactivity of the HS antibody is abolished after treatment with Hep III, indicating antibody specificity. […]

[2] = test system: Cx43 at RFPEC borders; experiment: Cx43 expression at EC borders, immunostaining and confocal microscopy
Method: as §1, §2
As specified by the manufacturer, the HS antibody reacts with many types of heparan sulfate. The reactivity of the HS antibody is abolished after treatment with Hep III, indicating antibody specificity. For secondary detection of HS, Alexa Flour 488 conjugated goat anti-mouse IgG/IgM (H+L; Life Technologies) secondary antibody was used. RFPECs to be processed for connexin 43 (Cx43) were fixed in 4% paraformaldehyde, permeabilized in 0.2% Triton X-100 (Fisher), and blocked in 5% goat serum combined with 0.2% Triton X-100. Connexin 43 staining was performed overnight at 4° C. with 1:100 mouse monoclonal Cx43 antibody (Millipore). […] Secondary Cx43 detection was done with Alexa Flour 488 conjugated goat anti-mouse IgG. […] These controls confirmed that the staining observed in the RFPECs is not an artefact.
Confocal immunofluorescence microscopy imaging and analysis. Alexa Fluor 488 fluorescent RFPECs were mounted with Vectashield containing DAPI (Vector Labs) and imaged with a Zeiss LSM 700 laser scanning confocal microscope. HS and Cx43 were imaged at 63× magnification (oil objective) and 40× magnification (oil objective), respectively. Lasers with excitation wavelengths of 490 nm (for HS or Cx43) and 350 nm (for DAPI) were used to obtain XY-plane slices. Laser gain and transmission were kept below fluorophore saturation levels. Confocal slice intervals were 0.2 μm for HS and 0.7 μm for Cx43. […]

[3] = test system: Cx-containing gap junctions of RFPEC; experiment: Lucifer Yellow scratch-loading dye transfer assay (gap junction communication)
Method: as §1, §2
Dye transfer assay, fluorescence microscopy and image analysis. Gap junction functionality was assessed by loading Lucifer Yellow in RFPECs, using a scratch technique, and observing the extent of Lucifer Yellow transfer from loaded cells to neighboring cells (FIG. 7B). Lucifer Yellow has a molecular weight of 457.3 and can only enter cells via broken membranes or via gap junctions. The scratch loading technique involved pre-incubation of RFPECs (for 1 minute) with calcium- and magnesium-free Hanks' Balanced Salt Solution (HBSS; Life Technology) containing 5 mg/ml Lucifer Yellow dye (Life Technology). A 5-μm diameter tip scribe (Ted Pella, Inc, USA) was then used to carefully create a straight scratch in the RFPEC monolayer and to allow the dye to enter the scratched cells. After the dye was loaded, it spread via open gap junctions to adjacent intact cells, with the extent of Lucifer Yellow spread reaching a plateau by 10 minutes after loading. At that point, excess dye was washed out and RFPECs were imaged at 10× magnification (dry objective) using a Zeiss Observer Z1 fluorescence microscope. From recorded images of dye transfer after scratch loading, ImageJ randomly selected dye spread locations that would be quantified along the scratch. At those random locations, lines perpendicular to the scratch axis were drawn, and the intact fluorescent cells (scratched cells excluded) were counted. […]

[4] = RFPEC, Hep III, then 16 h with or without 59 μg/ml HS and/or 10 μM S1P, mean±SEM
[5] = after Hep III, HS 59 μg/ml, S1P 10 μM

Row | Compound | HS expression in GCX, result in words (FIG. 2 legend) ([1]; 25 μIU/ml Hep III, HS 59 μg/ml, S1P 10 μM) | HS coverage of cell surfaces ([1]; RFPEC, Hep III 2 hours, probed 16 hours after, with or without 59 μg/ml exogenous HS and/or 10 μM S1P for the 16 hours, mean±SEM) | Cx43 distribution along the perimeter of the cells [2, 4] | Cx43 distribution/expression, result in words (FIG. 3 legend) [2, 5] | Lucifer Yellow dye spread, neighboring cells receiving dye per scratch-loaded cell [3, 4] | Lucifer Yellow dye transfer, result in words (FIG. 4 legend) [3, 5] | effect of actin disruption on cell-to-cell movement of Lucifer Yellow dye ([3]; preliminary studies, data not shown)
1 | CCCCCCCCCCCCC/C=C/[C@@H](O)[C@@H](N)COP(=O)(O)O [S1P, sphingosine-1-phosphate] | significantly recovered the expression of HS in GCX, back to baseline conditions | 71.97±5.02% | 34.81±5.16% | did not show a significant restoration of Cx43 expression | 2.06±0.08 cells | did not improve cell-to-cell communication | 
2 | C=C1[C@@H](C)[C@H]2[C@H](Cc3ccccc3)NC(=O)[C@]23[C@H](OC(C)=O)/C=C/[C@@](C)(O)C(=O)[C@@H](C)C/C=C/[C@H]3[C@@H]1O [cytochalasin D] |  |  |  |  |  |  | bars cell-to-cell movement of Lucifer Yellow dye
